Assay results published in patent US10857105B2, “Compounds and compositions for intracellular delivery of therapeutic agents” (ModernaTX, Inc., priority 2017, dated 2020).

How the values were obtained:
hEPO mRNA = assay: hEPO expression after intravenous administration to rats; format: in vivo, rat; settings: for hEPO expression / hEPO expression, 0.25 h / hEPO expression, 0.5 h / hEPO expression, 1 h / hEPO expression, 2 h / hEPO expression, 4 h / hEPO expression, 8 h / hEPO expression, 24 h / hEPO expression, 48 h: rat; for Lipid/MC3 hEPO conc. ratio, 0.2 mpk / Lipid/MC3 hEPO conc. ratio, 2 mpk: rats; for Lipid/MC3 hEPO expression: 6 hours after administration
Procedure: The expression of hEPO and cytokine induction in rats intravenously administered a nanoparticle composition at a dose of 2.0 mpk was measured at 6 h.
The expression of hEPO in rats intravenously administered a nanoparticle composition at a dose of 0.2 mpk or 2.0 mpk was measured at 6 hours. Table 16 summarize the ratio of hEPO expression levels using various nanoparticle compositions as compared to the hEPO expression level using MC3 formulation and the lipid levels in the liver measured 48 hours after administration, as described above. Tables 17 and 18 summarize the lipid levels in the liver and spleen measured 48 hours after administration of Compounds 28, 33, 53, and 54. Liver and spleen levels represent the average values calculated for 3 rats in each group. As is shown in Tables 17 and 18, less than 10% of Compounds 28, 33, 53, and 54 remained in the liver after 48 hours, while greater than 60% of MC3 remained.
Table 19A summarizes the hEPO expression, IP-10 induction, liver and spleen levels, and alanine aminotransferase (ALT) and aspartate aminotransferase (AST) measured upon intravenous administration of formulations including Compounds 48, 49, and 50 to rat at 0.2 and 2 mpk and hEPO mRNA. hEPO concentrations were measured 6 hours after administration, while cytokine induction and liver and spleen levels were measured 48 hours after administration. hEPO and IP-10 concentrations are presented in pg/ml, while liver levels are provided in ng/g. ALT and AST levels are presented in international units.
The expression of hEPO induced by intravenous administration to rats of nanoparticle compositions at various doses was measured at 2, 4, 6, 8, 24, and 48 hour time points. FIGS. 3-6 respectively summarize the hEPO expression measured upon intravenous administration of formulations including Compounds 26, 18, 25, and MC3 to rat at various doses. The lipid levels of Compound 26 in the liver after 48 hours were about 19%.
The expression of hEPO and lipid levels in the liver and spleen in rats intravenously administered a nanoparticle composition at a dose of 0.2 mpk was measured at various time points. Compounds 18 and 25 were selected for comparison with MC3. Lipids were formulated according to the standard MC3 formulation described above. Rats were administered intravenously a single 0.2 mpk dose and expression monitored at 0.25, 0.5, 1, 2, 4, 8, 24, and 48 hours after administration.

modified luciferase = assay: Luciferase expression in liver, lung, spleen and femur 6 hours after intravenous administration to mice; format: in vivo; settings: 6 hours after intravenous 0.5 mpk, mice
How it was run: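 Mice (n=3) got a single 0.5 mpk IV dose of each nanoparticle composition, with MC3 and PBS controls alongside. Organ luminescence flux was read 6 h post-dose.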

[1] = Encapsulation efficiency of RNA in nanoparticle compositions (RIBOGREEN assay); format: physicochemical; settings: for % EE: compositions for subcutaneous administration
How it was run: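 Lipid nanoparticles (ionisable lipid:DSPC:cholesterol:PEG-DMG 50:10:38.5:1.5 mol %) carrying N1-methylpseudouridine luciferase or hEPO mRNA diluted to about 5 μg/mL in TE, pH 7.5, with or without 2% Triton X-100, 15 min at 37° C. RiboGreen fluorescence (ex ~480, em ~520 nm) blank-subtracted; free RNA = intact/disrupted signal.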

[2] = Table 1A, lipid:DSPC:cholesterol:PEG-DMG 50:10:38.5:1.5 mol %
[3] = Table 1B, formulated with hEPO mRNA

Compound | hEPO expression (hEPO mRNA; intravenous, 6 h, 2 mpk) | Lipid/MC3 hEPO conc. ratio, 0.2 mpk (hEPO mRNA; intravenous 0.2 mpk, 6 hours) | Lipid/MC3 hEPO conc. ratio, 2 mpk (hEPO mRNA; intravenous 2 mpk, 6 hours) | Total Flux, Femur (modified luciferase) | Total Flux, Liver (modified luciferase) | Total Flux, Lung (modified luciferase) | Total Flux, Spleen (modified luciferase) | EE [1, 2] | EE [1, 3] | hEPO expression, 0.25 h (hEPO mRNA; intravenous 0.2 mpk) | hEPO expression, 0.5 h (hEPO mRNA; intravenous 0.2 mpk) | hEPO expression, 1 h (hEPO mRNA; intravenous 0.2 mpk) | hEPO expression, 2 h (hEPO mRNA; intravenous 0.2 mpk) | hEPO expression, 4 h (hEPO mRNA; intravenous 0.2 mpk) | hEPO expression, 8 h (hEPO mRNA; intravenous 0.2 mpk) | hEPO expression, 24 h (hEPO mRNA; intravenous 0.2 mpk) | hEPO expression, 48 h (hEPO mRNA; intravenous 0.2 mpk) | further results
CCCCCCCCCN(CCO)CCCCCCCC(=O)OC(CCCCCCCC)CCCCCCCC [Compound 3, Heptadecan-9-yl 8-((2-hydroxyethyl)(nonyl)amino)octanoate] | 1.74e+07 pg/mL | 2.41 | 1.21 | 7.36E+06 | 1.39E+10 | 4.76E+07 | 1.47E+08 | 92.25% | – | – | – | – | – | – | – | – | – | –
CCCCCCCCC(C)OC(=O)CCCCCCCN(CCO)CCCCCCCC(=O)OC(CCCCCCCC)CCCCCCCC (stereo not shown) [Compound 48, decan-2-yl 8-((8-(heptadecan-9-yloxy)-8-oxooctyl)(2-hydroxyethyl)amino)octanoate] | – | 5.39 | 3.84 | – | 1.08E+10 | 3.31E+07 | 3.49E+08 | 96.55% | – | – | – | – | – | – | – | – | – | –
CCCCCCCCCOC(=O)CCCCCCCN(CCO)CCCCCCCOC(=O)C(CCCCCCCC)CCCCCCCC [Compound 30, 7-((2-Hydroxyethyl)(8-(nonyloxy)-8-oxooctyl)amino)heptyl 2-octyldecanoate] | 1.63e+07 pg/mL | 1.87 | 1.14 | 6.38E+06 | 2.68E+09 | 1.02E+07 | 3.55E+07 | 95.69% | 96.32% | – | – | – | – | – | – | – | – | –
CCCCCC=CCC=CCCCCCCCCC(CCCCCCCCC=CCC=CCCCCC)OC(=O)CCCN(C)C (stereo not shown) [MC3, heptatriaconta-6,9,28,31-tetraen-19-yl 4-(dimethylamino)butanoate, reference compound] | 1.33e+07 pg/mL | 1 | 1 | 2.56E+06 | 2.57E+09 | 1.27E+07 | 2.85E+07 | 97.3% | 99.01% | 0 pg/mL | 42457 pg/mL | 93720 pg/mL | 524093 pg/mL | 601307 pg/mL | 1536833 pg/mL | 703619 pg/mL | 64687 pg/mL | Lipid/MC3 hEPO expression (hEPO mRNA; 0.2 mpk dose to rat): 1; Lipid/MC3 hEPO expression (hEPO mRNA; 2 mpk dose to rat): 1; [hEPO] (hEPO mRNA; Table 19B): 14800 pg/mL; hEPO AUC (hEPO mRNA; Table 19B): 3.46e+07 pg·h/mL; hEPO expression (hEPO mRNA; intravenous 0.2 mpk, 6 hours): 7.68e+06 pg/mL; hEPO expression (hEPO mRNA; intravenous 2 mpk, 6 hours): 9.29e+06 pg/mL; % EE ([1]; Table 1C): 98.2%; % EE ([1]; Table 1D, # formulated with hEPO mRNA): 98.7%; % EE ([1]; Table 1E): 98%; EE ([1]; lipid:DSPC:Chol:PEG-DMG (50:10:38.5:1.5), hEPO mRNA): 97.22%; EE ([1]; nanoparticle composition with hEPO mRNA (Table 30)): 91.66%
CCCCCCCCCOC(=O)CCCCCCCN(CCO)CCCCCCCC(=O)OC(CCCCCCCC)CCCCCCCC [Compound 18, Heptadecan-9-yl 8-((2-hydroxyethyl)(8-(nonyloxy)-8-oxooctyl)amino)octanoate] | 9.96e+06 pg/mL | – | 0.81 | 4.68E+06 | 2.76E+09 | 1.25E+07 | 5.15E+07 | – | 96.95% | 20227 pg/mL | 20743 pg/mL | 194353 pg/mL | 238107 pg/mL | 514807 pg/mL | 915320 pg/mL | 412051 pg/mL | 52361 pg/mL | –
Nonyl 8-((6-(heptadecan-9-yloxy)-6-oxohexyl)(2-hydroxyethyl)amino) octanoate [Compound 27] | – | – | – | 2.00E+06 | 2.16E+09 | 6.35E+06 | 3.78E+06 | 94.27% | – | – | – | – | – | – | – | – | – | –
CCCCCCCCCOC(=O)CCCN(CCO)CCCCCCCC(=O)OC(CCCCCCCC)CCCCCCCC [Compound 26, Heptadecan-9-yl 8-((2-hydroxyethyl)(4-(nonyloxy)-4-oxobutyl)amino) octanoate] | – | – | 4.95 | 4.67E+06 | 2.90E+09 | 1.18E+07 | 1.56E+07 | – | – | – | – | – | – | – | – | – | – | –
CCCCCC/C=C\COC(=O)CCCCCCCN(CCO)CCCCCCCC(=O)OC(CCCCCCCC)CCCCCCCC [Compound 24, Heptadecan-9-yl (Z)-8-((2-hydroxyethyl) (8-(non-2-en-1-yloxy)-8-oxooctyl)amino)octanoate] | 1.44e+07 pg/mL | 1.75 | 1.01 | 4.54E+06 | 4.19E+09 | 1.71E+07 | 8.78E+07 | – | – | – | – | – | – | – | – | – | – | –
CCCCCCCCCCCOC(=O)CCCCCN(CCO)CCCCCCCC(=O)OC(CCCCCCCC)CCCCCCCC [Compound 25, Heptadecan-9-yl 8-((2-hydroxyethyl)(6-oxo-6-(undecyloxy)hexyl)amino)octanoate] | 3.05e+07 pg/mL | 2.41 | 2.13 | 4.40E+06 | 2.41E+09 | 1.51E+07 | 3.11E+07 | 95.80% | 97.92% | 0 pg/mL | 19553 pg/mL | 434299 pg/mL | 2042807 pg/mL | 3176560 pg/mL | 2631633 pg/mL | 869374 pg/mL | 103089 pg/mL | –
